Results on 10 compounds are retold here after ChEMBL document CHEMBL3784947, “Pharmacophore elucidation of phosphoiodyn A - Potent and selective peroxisome proliferator-activated receptor β/δ agonists with neuroprotective activity” (Bioorg Med Chem Lett, 2016).

Calls of active or inactive are those of the source. The rule behind the calls is not given here. Where only a bound is given, the exact number is not on record here.

The species entered for one experiment is Homo sapiens. As to the kind of experiment: Ratio of EC50 for human PPAR alpha to EC50 for human PPAR delta.
Experiment [1] deals with T1, Peroxisome proliferator-activated receptor delta (Homo sapiens, UniProt Q03181).
T1 sequence (Q03181 whole entry): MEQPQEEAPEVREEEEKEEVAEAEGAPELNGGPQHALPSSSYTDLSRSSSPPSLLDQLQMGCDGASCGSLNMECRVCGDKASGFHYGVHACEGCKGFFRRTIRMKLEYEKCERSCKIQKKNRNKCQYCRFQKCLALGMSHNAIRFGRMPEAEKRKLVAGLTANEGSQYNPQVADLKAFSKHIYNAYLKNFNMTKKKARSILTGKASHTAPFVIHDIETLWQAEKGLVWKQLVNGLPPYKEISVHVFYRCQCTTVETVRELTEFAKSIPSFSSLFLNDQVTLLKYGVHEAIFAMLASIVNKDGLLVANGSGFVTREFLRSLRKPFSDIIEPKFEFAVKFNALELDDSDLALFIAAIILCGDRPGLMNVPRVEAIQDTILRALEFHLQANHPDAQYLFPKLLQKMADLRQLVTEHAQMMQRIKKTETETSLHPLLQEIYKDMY
As to the kind of experiment: Agonist activity at PPAR delta (unknown origin) transfected in HEK293 cells after 24 hrs by dual-luciferase reporter gene assay. Type of experiment: cell-based. In general terms: In a reporter assay the amount or activity of a reporter protein is the signal.

For experiment [2], the target named is T1, Peroxisome proliferator-activated receptor delta. Kind of experiment: Agonist activity at human PPAR delta by cell based cotransfection assay.
Experiment [3] concerns the target PPAR delta/gamma (Homo sapiens) (UniProt P37231+Q03181). Kind of experiment: Ratio of EC50 for human PPAR gamma to EC50 for human PPAR delta.
For experiment [4], the target named is T1, Peroxisome proliferator-activated receptor delta. As to the kind of experiment: Agonist activity at PPAR delta (unknown origin).
Experiment [5] has as its target T2, Peroxisome proliferator-activated receptor alpha (Homo sapiens) (UniProt Q07869).
T2 sequence (whole entry): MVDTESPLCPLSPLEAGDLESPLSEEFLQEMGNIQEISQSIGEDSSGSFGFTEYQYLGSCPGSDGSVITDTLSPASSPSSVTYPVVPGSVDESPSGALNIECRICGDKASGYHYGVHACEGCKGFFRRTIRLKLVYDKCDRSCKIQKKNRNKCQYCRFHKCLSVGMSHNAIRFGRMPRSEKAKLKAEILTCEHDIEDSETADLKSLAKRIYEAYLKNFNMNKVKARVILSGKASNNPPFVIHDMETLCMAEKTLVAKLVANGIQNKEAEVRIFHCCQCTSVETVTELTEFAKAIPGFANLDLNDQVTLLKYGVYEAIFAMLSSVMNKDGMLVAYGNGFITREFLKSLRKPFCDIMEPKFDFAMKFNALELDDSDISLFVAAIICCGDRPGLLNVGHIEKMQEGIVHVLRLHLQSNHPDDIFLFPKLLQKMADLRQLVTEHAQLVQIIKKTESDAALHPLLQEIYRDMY
As to the kind of experiment: Agonist activity at PPAR alpha (unknown origin) transfected in HEK293 cells at 1 uM after 24 hrs by dual-luciferase reporter gene assay. Type of experiment: cell-based.

For experiment [6], the target named is T3, Peroxisome proliferator-activated receptor gamma (Homo sapiens) (UniProt P37231).
T3 sequence (whole entry): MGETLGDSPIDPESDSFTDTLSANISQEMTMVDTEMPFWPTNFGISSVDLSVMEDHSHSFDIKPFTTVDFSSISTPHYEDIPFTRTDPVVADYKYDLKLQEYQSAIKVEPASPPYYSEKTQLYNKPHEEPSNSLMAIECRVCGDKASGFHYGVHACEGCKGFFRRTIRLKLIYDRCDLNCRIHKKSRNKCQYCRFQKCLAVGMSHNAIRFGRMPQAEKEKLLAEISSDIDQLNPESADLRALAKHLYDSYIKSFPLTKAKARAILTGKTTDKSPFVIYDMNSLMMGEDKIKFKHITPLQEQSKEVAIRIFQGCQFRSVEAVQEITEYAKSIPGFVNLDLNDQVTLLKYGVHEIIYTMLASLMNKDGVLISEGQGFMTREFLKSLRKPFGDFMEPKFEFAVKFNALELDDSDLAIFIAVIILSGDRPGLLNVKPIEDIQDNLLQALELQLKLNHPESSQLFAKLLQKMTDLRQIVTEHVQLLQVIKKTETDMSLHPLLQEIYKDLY
As to the kind of experiment: Agonist activity at PPAR gamma (unknown origin) transfected in HEK293 cells at 0.1 to 100 uM after 24 hrs by DR-1 luciferase reporter gene assay. Type of experiment: cell-based.

The target in experiment [7] is T3, Peroxisome proliferator-activated receptor gamma (Homo sapiens). Kind of experiment: Agonist activity at PPAR gamma (unknown origin) transfected in HEK293 cells at 1 uM after 24 hrs by dual-luciferase reporter gene assay. The experiment is classed as cell-based.
Experiment [8] deals with T4, Peroxisome proliferator-activated receptor delta (Homo sapiens) (UniProt Q03181).
T4 sequence (whole entry): T1 sequence (Q03181 whole entry)
As to the kind of experiment: Agonist activity at PPAR delta (unknown origin) transfected in HEK293 cells at 0.001 to 1000 uM after 24 hrs by pGL3-Luciferase reporter gene assay. Type of experiment: cell-based.

For experiment [9], the target named is T4, Peroxisome proliferator-activated receptor delta (Homo sapiens). Kind of experiment: Agonist activity at PPAR delta (unknown origin) transfected in HEK293 cells at 1 uM after 24 hrs by dual-luciferase reporter gene assay. Type of experiment: cell-based.
The subject of experiment [10] is PC-12. Kind of experiment: Neuroprotective activity against etoposide-induced apoptosis in rat PC12 cells assessed as cell viability at 3 uM preincubated for 4 hrs followed by etoposide addition measured after 48 hrs by prestoblue staining based fluorescence assay (reference value: 52 %). Particulars: read-out: Activity. Type of experiment: functional.
Experiment [11] concerns the target T4, Peroxisome proliferator-activated receptor delta (Homo sapiens). As to the kind of experiment: Agonist activity at PPAR delta (unknown origin) transfected in HEK293 cells at 0.001 to 1000 uM after 24 hrs by DR-4 luciferase reporter gene assay. The experiment is classed as cell-based.
In experiment [12] the test system is PC-12. Kind of experiment: Neuroprotective activity against serum starvation-induced apoptosis in rat PC12 cells assessed as cell survival at 1 to 30 uM after 24 hrs by prestoblue staining based fluorescence assay (reference value: 55%). Type of experiment: functional.
Experiment [13] deals with PC-12. Kind of experiment: Neuroprotective activity against etoposide-induced apoptosis in rat PC12 cells assessed as cell viability at 1 uM preincubated for 4 hrs followed by etoposide addition measured after 48 hrs by prestoblue staining based fluorescence assay. Type of experiment: functional.

The EC50 is the concentration that produces a half-maximal response. Low values mean greater potency, high ones weaker potency. For the compound `O=P(O)(CCO)OCCC#CC#CCCCCCC/C=C/I`, the Ratio EC50 (in the experiment filed under Homo sapiens; in [3]) was greater than 200 in each case. The concentration for a half-maximal effect (EC50) in [1] was determined as 0.024 µM; in experiment [2], 0.0237 µM.
For `C[C@@H]1CN(c2ccc(OC(F)(F)F)cc2)C[C@H](C)N1S(=O)(=O)c1cccc2c1C[C@@H](C(=O)O)C2`, a half-maximal response in [4] (EC50) required 0.0015 µM.
`O=P(O)(O)CCO` registered an EC50 in experiment [1] greater than 100 µM. The result in experiment [5], in experiment [6] and in experiment [7] was inactive.
On to `CN(CCOc1ccc(CC2SC(=O)NC2=O)cc1)c1ccccn1` (stereo not given), for which the outcome in [7] was Active.
Take `CCOP(=O)(CCO)OCC`: the outcome in experiment [8], in [11], in experiment [5], in experiment [6] and in experiment [7] was inactive. The compound further returned an EC50 in experiment [1] of 0.112 µM. Besides, the outcome (in experiment [9]; with PC-12 [13]) was Active. Further, in the experiment on PC-12 [10], the viability at 3 µM came out at 116%. Also, in the experiment with PC-12 [12], the Survival was 78%.
Regarding `CCOC(=O)CCO`, the EC50 in experiment [1] was greater than 1 µM. For the same compound, the result in experiment [9], in experiment [5], in experiment [6] and in [7] was Active.
`Cc1cccc(Nc2cc(Cl)nc(SCC(=O)O)n2)c1C`: the outcome in experiment [5] was Active.
Regarding `CCOP(=O)(O)CCO`, the outcome in experiment [8], in [11], in experiment [5], in [6] and in experiment [7] was inactive. The compound further gave an EC50 in experiment [1] of 0.078 µM. Moreover, the outcome (in experiment [9]; in the experiment on PC-12 [13]) was Active. In addition, in the experiment with PC-12 [10], the viability at 3 µM turned out to be 110%. Besides, in the experiment with PC-12 [12], the Survival came to 77%.
As to `CCOC(=O)Nc1ccc(NCc2ccc(F)cc2)nc1N` [FLUPIRTINE], in the experiment with PC-12 [10], the viability at 3 µM is 80%. Moreover, the Survival with PC-12 [12] stood at 82%.
For `O=P(O)(OCO)OCCC#CC#CCCCCCC/C=C/I`, the EC50 in experiment [1] is greater than 10 µM; in experiment [2], greater than 0.01 µM.
